Test [1] concerns the target DGKα (Homo sapiens (Human), UniProt P23743). Nature of the test: In vitro DGKα inhibition assay (ADP-Glo). Format: biochemical. Conditions: first column of Table A; His-tagged human recombinant DGKα 0.1 nM, 50 μM ATP, 20 μM DLG. Here is the method: (§1) The DGKα and DGKζ biochemical reactions were performed using His-tagged human recombinant enzymes (Signal Chem, DGKα, #D21-10BH; DGKζ, #D30-1OH)) and DLG (Dilauroyl-sn-glycerol) lipid substrate (Signal Chem, #D430-59). ADP-Glo assay was performed using ADP-Glo™ kinase Assay kit (Promega, #V9104). The reactions were carried out in assay buffer containing 40 mM Tris, pH 7.5, 0.1% CHAPS, 0.1% Prionex, 40 mM NaCl, 5 mM MgCl2, 1 mM CaCl2, and 1 mM DTT. DGKα reactions contained 0.1 nM DGKα, 50 μM ATP, and 20 μM DLG. And DGKζ reactions contained 0.4 nM DGKζ, 30 μM ATP, and 20 μM DLG.
(§2) For compound inhibition studies, 40 nL test compound in DMSO was added to wells of white polystyrene plates in 384-well (Greiner, #784075) or 1536-well format (Greiner, #782075). Compounds were added with top concentration of 2 mM with 11 point, 3-fold dilution series. Enzyme solution (contains 2× DGK enzyme concentration in 1× assay buffer) was added to the plate in 2 μL/well volume, followed by 2 μL/well of substrate solution (contains 2× concentration of ATP and DLG substrate in 1× assay buffer). Plates were then centrifuged for 1 min at 1200 RPM and sealed or lidded. For 4 μL reaction volume, test compounds were therefore diluted 100× to final top concentration of 20 μM. After 90 minute incubation, reactions were quenched by addition of 2 μL/well Promega ADP-Glo Reagent, followed by centrifugation and lidding. After 60 min incubation, 2 μL/well Promega Kinase Detection Reagent was added, plates centrifuged, and incubated for 30 min. Plates were then read using Luminescence method on BMG PHERAstar FSX plate reader. Percent inhibition was calculated and IC50s were determined using 4-parameter fit in Genedata Screener. Labcyte Echo acoustic dispenser was used for compound addition, and Formulatrix Tempest liquid handler was used for all reagent dispenses.

Test [2] addresses DGKζ (Homo sapiens (Human), UniProt Q13574). Put plainly: In vitro DGKζ inhibition assay (ADP-Glo). To be noted: second column of Table A, head printed DGKα, presumably DGKζ; His-tagged human recombinant DGKζ 0.4 nM, 30 μM ATP, 20 μM DLG. Format: biochemical. On the procedure: as §1, §2

Sequence of DGKα (P23743 whole entry): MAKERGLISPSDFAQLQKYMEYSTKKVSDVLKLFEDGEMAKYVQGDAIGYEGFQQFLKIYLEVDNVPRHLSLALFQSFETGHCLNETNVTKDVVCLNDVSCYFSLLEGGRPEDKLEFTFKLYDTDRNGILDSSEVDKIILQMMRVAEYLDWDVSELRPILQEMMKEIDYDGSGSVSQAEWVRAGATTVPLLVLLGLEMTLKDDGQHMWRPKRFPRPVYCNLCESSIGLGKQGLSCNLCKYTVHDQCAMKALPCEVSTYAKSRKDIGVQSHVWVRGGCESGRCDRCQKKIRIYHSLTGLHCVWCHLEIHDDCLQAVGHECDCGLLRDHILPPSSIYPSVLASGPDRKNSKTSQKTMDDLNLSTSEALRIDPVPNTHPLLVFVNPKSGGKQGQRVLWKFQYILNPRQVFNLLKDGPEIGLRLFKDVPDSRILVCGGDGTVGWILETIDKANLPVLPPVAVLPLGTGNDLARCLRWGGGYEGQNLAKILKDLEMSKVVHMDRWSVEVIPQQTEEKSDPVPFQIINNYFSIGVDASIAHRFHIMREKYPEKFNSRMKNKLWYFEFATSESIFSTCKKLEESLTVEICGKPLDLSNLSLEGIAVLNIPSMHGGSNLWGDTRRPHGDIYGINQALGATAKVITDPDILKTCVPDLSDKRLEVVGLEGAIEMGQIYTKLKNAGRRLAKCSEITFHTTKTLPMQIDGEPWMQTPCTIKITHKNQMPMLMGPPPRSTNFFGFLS
Sequence of DGKζ (Q13574 whole entry): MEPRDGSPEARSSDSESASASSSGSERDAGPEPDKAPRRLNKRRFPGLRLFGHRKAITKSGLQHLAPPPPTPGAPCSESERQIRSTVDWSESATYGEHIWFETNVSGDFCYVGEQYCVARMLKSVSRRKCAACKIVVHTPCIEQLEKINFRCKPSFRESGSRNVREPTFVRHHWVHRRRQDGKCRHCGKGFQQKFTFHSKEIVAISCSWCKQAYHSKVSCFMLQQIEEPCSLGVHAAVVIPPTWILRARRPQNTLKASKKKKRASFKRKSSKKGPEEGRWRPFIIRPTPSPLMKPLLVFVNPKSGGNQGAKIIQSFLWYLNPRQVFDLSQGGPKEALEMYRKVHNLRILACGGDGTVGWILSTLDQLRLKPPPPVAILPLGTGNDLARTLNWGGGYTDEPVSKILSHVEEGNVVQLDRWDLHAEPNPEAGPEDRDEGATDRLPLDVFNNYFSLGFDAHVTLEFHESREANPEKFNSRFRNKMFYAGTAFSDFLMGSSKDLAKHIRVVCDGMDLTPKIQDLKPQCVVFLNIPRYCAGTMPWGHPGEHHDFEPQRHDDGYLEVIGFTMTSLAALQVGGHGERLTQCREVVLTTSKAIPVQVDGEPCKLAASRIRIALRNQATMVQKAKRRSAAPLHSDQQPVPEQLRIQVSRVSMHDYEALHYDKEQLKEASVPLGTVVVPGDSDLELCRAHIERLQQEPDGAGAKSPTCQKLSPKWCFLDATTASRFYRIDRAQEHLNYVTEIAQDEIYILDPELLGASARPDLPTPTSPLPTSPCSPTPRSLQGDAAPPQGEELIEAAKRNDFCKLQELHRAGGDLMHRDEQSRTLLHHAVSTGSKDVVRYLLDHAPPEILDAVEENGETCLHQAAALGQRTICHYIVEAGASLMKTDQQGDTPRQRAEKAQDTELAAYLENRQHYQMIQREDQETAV

With `C[C@@H]1CN(c2nc(=O)[nH]c3c2ncn3C[C@@H]2CCCO2)[C@@H](C)CN1C(c1ccc(F)cc1)c1ccc(F)cc1` [Example 9, 6-((2S,5R)-4-(Bis(4-fluorophenyl)methyl)-2,5-dimethylpiperazin-1-yl)-9-(((S)-tetrahydrofuran-2-yl)methyl)-3,9-dihydro-2H-purin-2-one], the 50% inhibitory concentration (IC50) in test [1] and in test [2] was no more than 100 nM in each case.
On to `CC[C@@H]1CN(c2nc(=O)n(C)c3c2nc(C)n3C[C@H]2OCC[C@@H]2O)[C@@H](C)CN1[C@H](CC)c1ccc(C(F)(F)F)cc1` [Example 70, 6-((2S,5R)-5-ethyl-2-methyl-4-((R)-1-(4-(trifluoromethyl)phenyl)propyl)piperazin-1-yl)-9-(((2R,3S)-3-hydroxytetrahydrofuran-2-yl)methyl)-3,8-dimethyl-3,9-dihydro-2H-purin-2-one], for which the IC50 in test [1] and in test [2] was no more than 10 nM each time.
In the case of `Cc1nc2c(N3C[C@@H](C)N([C@H](c4ccc5ccc(C(F)(F)F)cc5n4)C(C)C)C[C@@H]3C)nc(=O)n(C)c2n1C[C@@H]1CCCO1` [Example 50, 6-((2S,5R)-2,5-dimethyl-4-((S)-2-methyl-1-(7-(trifluoromethyl)quinolin-2-yl)propyl)piperazin-1-yl)-3,8-dimethyl-9-(((S)-tetrahydrofuran-2-yl)methyl)-3,9-dihydro-2H-purin-2-one], the half-maximal inhibitory concentration (IC50) in test [1] and in test [2] was no more than 10 nM throughout.
Regarding `CCC(c1ccc(C(F)(F)F)cc1)N1C[C@H](C)N(c2nc(=O)n(C)c3c2ncn3CC2(O)CCCC2)C[C@H]1CC` (single isomer, unassigned) [Example 73], the concentration for half-maximal inhibition (IC50) in test [1] and in test [2] was no more than 10 nM in each case.
With `Cc1nc2c(N3C[C@@H](C)N(C(c4ccc(C(F)(F)F)cc4)C4CC(F)(F)C4)C[C@@H]3C)cc(=O)n(C)c2n1C[C@@H]1CCCO1` (stereo partly drawn) [Example 40, 7-((2S,5R)-4-((3,3-Difluorocyclobutyl)(4-(trifluoromethyl)phenyl)methyl)-2,5-dimethylpiperazin-1-yl)-2,4-dimethyl-3-(((S)-tetrahydrofuran-2-yl)methyl)-3,4-dihydro-5H-imidazo[4,5-b]pyridin-5-one], the half-maximal inhibitory concentration (IC50) in test [1] and in test [2] was no more than 100 nM throughout.
As for `CC[C@@H]1CN(c2nc(=O)n(C)c3c2nnn3C[C@H]2CCCO2)[C@@H](C)CN1[C@H](c1ccc(Cl)cc1)[C@@H]1CC1(F)F` [Example 22, 7-((2S,5R)-4-((S)-(4-Chlorophenyl)((S)-2,2-difluorocyclopropyl)methyl)-5-ethyl-2-methylpiperazin-1-yl)-4-methyl-3-(((R)-tetrahydrofuran-2-yl)methyl)-3,4-dihydro-5H-[1,2,3]triazolo[4,5-d]pyrimidin-5-one], the values for the IC50 in test [1] and in test [2] were no more than 10 nM and no more than 100 nM, respectively.
Turning to `Cc1nc2c(N3C[C@@H](C)N([C@H](c4ccc(C(F)F)c(F)c4)C(C)C)C[C@@H]3C)nc(=O)n(C)c2n1C[C@@H]1CCCO1` [Example 55, 6-((2S,5R)-4-((S)-1-(4-(Difluoromethyl)-3-fluorophenyl)-2-methylpropyl)-2,5-dimethylpiperazin-1-yl)-3,8-dimethyl-9-(((S)-tetrahydrofuran-2-yl)methyl)-3,9-dihydro-2H-purin-2-one], the IC50 in test [1] and in test [2] was no more than 10 nM in each case.
For `CC[C@@H]1CN(c2nc(=O)n(C)c3c2nc(C)n3C[C@@H]2CCCO2)[C@@H](C)CN1C(c1ccc(Cl)cc1)C1CC(F)(F)C1` (stereo partly drawn) [Example 37, 6-((2S,5R)-4-((4-Chlorophenyl)(3,3-difluorocyclobutyl)methyl)-5-ethyl-2-methylpiperazin-1-yl)-3,8-dimethyl-9-(((S)-tetrahydrofuran-2-yl)methyl)-3,9-dihydro-2H-purin-2-one], the IC50 in test [1] and in test [2] was no more than 10 nM in each case.
With `Cc1nc2c(N3C[C@@H](C)N(C(c4ccc(C(F)(F)F)cc4)C4CC(F)(F)C4)C[C@@H]3C)nc(=O)[nH]c2n1C[C@@H]1CCCO1` (single isomer, unassigned) [Example 14], the IC50 was no more than 10 nM in test [1] and no more than 100 nM in test [2].
Regarding `CC[C@@H]1CN(c2nc(=O)n(C)c3c2nnn3C[C@H]2CCCO2)[C@@H](C)CN1C(CC(C)C)c1ccc(Cl)cc1` (single isomer, unassigned) [Example 20], the 50% inhibitory concentration (IC50) in test [1] and in test [2] was no more than 10 nM throughout.
Turning to `CC(C)[C@H](c1ccc(Cl)cc1)N1C[C@H](C)N(c2nc(=O)n(C)c3c2ncn3CC2(O)CCCC2)C[C@H]1C` [Example 58, 6-((2S,5R)-4-((R)-1-(4-chlorophenyl)-2-methylpropyl)-2,5-dimethylpiperazin-1-yl)-9-((1-hydroxycyclopentyl)methyl)-3-methyl-3,9-dihydro-2H-purin-2-one], the IC50 in test [1] and in test [2] was no more than 10 nM throughout.
As to `CC[C@@H]1CN(c2nc(=O)n(C)c3c2nc(C)n3C[C@H]2OCC[C@@H]2O)[C@@H](C)CN1C(c1ccc(Cl)cc1)C1CC(F)(F)C1` (stereo partly drawn) [Example 65, 6-((2S,5R)-4-((4-Chlorophenyl)(3,3-difluorocyclobutyl)methyl)-5-ethyl-2-methylpiperazin-1-yl)-9-(((2R,3S)-3-hydroxytetrahydrofuran-2-yl)methyl)-3,8-dimethyl-3,9-dihydro-2H-purin-2-one], the IC50 in test [1] and in test [2] was no more than 10 nM each time.
On to `Cc1nc2c(N3C[C@@H](C)N(C(CC(C)C)c4ccc(Cl)cc4)C[C@@H]3C)nc(=O)n(C)c2n1C[C@@H]1CCCO1` (stereo partly drawn) [Example 16, 6-((2S,5R)-4-(1-(4-Chlorophenyl)-3-methylbutyl)-2,5-dimethylpiperazin-1-yl)-3,8-dimethyl-9-(((S)-tetrahydrofuran-2-yl)methyl)-3,9-dihydro-2H-purin-2-one], for which the half-maximal inhibitory concentration (IC50) in test [1] and in test [2] was no more than 10 nM throughout.
Turning to `Cc1nc2c(N3C[C@@H](C)N(C(c4ccc(F)cc4)c4ccc(F)cc4)C[C@@H]3C)nc(=O)[nH]c2n1C[C@@H]1CCCO1` [Example 1, 6-((2S,5R)-4-(Bis(4-fluorophenyl)methyl)-2,5-dimethylpiperazin-1-yl)-8-methyl-9-(((S)-tetrahydrofuran-2-yl)methyl)-3,9-dihydro-2H-purin-2-one], the IC50 in test [1] is no more than 10 nM; in test [2], no more than 100 nM.
`CC(C)[C@@H](c1ccc(Cl)cc1)N1C[C@H](C)N(c2nc(=O)n(C)c3c2ncn3CC2(O)CCCC2)C[C@H]1C` [Example 57, 6-((2S,5R)-4-((S)-1-(4-Chlorophenyl)-2-methylpropyl)-2,5-dimethylpiperazin-1-yl)-9-((1-hydroxycyclopentyl)methyl)-3-methyl-3,9-dihydro-2H-purin-2-on]: the IC50 in test [1] and in test [2] was no more than 10 nM each time.
In the case of `Cc1nc2c(N3C[C@@H](C)N([C@@H](c4ccc(C(F)(F)F)cc4F)C(C)C)C[C@@H]3C)nc(=O)n(C)c2n1C[C@@H]1CCCO1` [Example 52, 6-((2S,5R)-4-((R)-1-(2-Fluoro-4-(trifluoromethyl)phenyl)-2-methylpropyl)-2,5-dimethylpiperazin-1-yl)-3,8-dimethyl-9-(((S)-tetrahydrofuran-2-yl)methyl)-3,9-dihydro-2H-purin-2-one], the half-inhibitory concentration (IC50) in test [1] and in test [2] was no more than 10 nM throughout.

The values are drawn from patent US20250066363A1, “Bicyclic DGK Inhibitors” (Incyte Corporation, priority 2023, published 2025).
